Source: patent publication US8802597B2, “Herbicidal pyrimidines” (E I du Pont de Nemours and Company, priority 2003, dated 2014)

Tests used:
Assay type in all cases: in vivo
[1] = system: giant foxtail (Setaria faberi); assay: Test A pre/postemergence
How it was run: (§1)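 Greenhouse herbicide test with preemergence directed soil spray and postemergence foliar spray at the 1- to 2-leaf stage; visual control rating 0–100 versus untreated at ~10 days.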

[2] = system: redroot pigweed (Amaranthus retroflexus); assay: Test A pre/postemergence
How it was run: as §1

[3] = system: crabgrass (Digitaria sanguinalis); assay: Test A pre/postemergence
How it was run: as §1

[4] = system: velvetleaf (Abutilon theophrasti); assay: Test A pre/postemergence
How it was run: as §1

[5] = system: morningglory (Ipomoea spp.); assay: Test A pre/postemergence
How it was run: as §1

[6] = system: barnyardgrass (Echinochloa crus-galli); assay: Test A pre/postemergence
How it was run: as §1

[7] = system: rice flatsedge (Cyperus iria); assay: Test E flooded paddy water application; settings: Flood, 21 days, scale 0 to 100 (0 no effect, 100 complete control)
How it was run: (§2)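 Response scored visually on a 0–100 scale (100 = complete control) at 21 days against untreated pots. Treatment was into paddy water 3 cm deep over silt loam, with plants at the 2.0–2.5-leaf stage, grown under 16-h light at 29.5/26.7 °C day/night.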

[8] = system: water seeded rice seedlings (Oryza sativa cv. ‘Japonica-M202’); assay: Test E flooded paddy water application; settings: Flood, 21 days, scale 0 to 100 (0 no effect, 100 complete control)
How it was run: as §2

[9] = system: ducksalad (Heteranthera limosa); assay: Test E flooded paddy water application; settings: Flood, 21 days, scale 0 to 100 (0 no effect, 100 complete control)
How it was run: as §2

[10] = system: smallflower umbrella sedge (Cyperus difformis); assay: Test E flooded paddy water application; settings: Flood, 21 days, scale 0 to 100 (0 no effect, 100 complete control)
How it was run: as §2

[11] = system: transplanted rice seedlings (Oryza sativa cv. ‘Japonica-M202’); assay: Test E flooded paddy water application; settings: Flood, 21 days, scale 0 to 100 (0 no effect, 100 complete control)
How it was run: as §2

[12] = system: early watergrass (Echinochloa oryzoides); assay: Test E flooded paddy water application; settings: Flood, 21 days, scale 0 to 100 (0 no effect, 100 complete control)
How it was run: as §2

[13] = system: bearded (brdd.) sprangletop (Leptochloa fusca ssp. fascicularis); assay: Test E flooded paddy water application; settings: Flood, 21 days, scale 0 to 100 (0 no effect, 100 complete control)
How it was run: as §2

[14] = system: late watergrass (Echinochloa oryzicola); assay: Test E flooded paddy water application; settings: Flood, 21 days, scale 0 to 100 (0 no effect, 100 complete control)
How it was run: as §2

[15] = system: barnyardgrass (Echinochloa crus-galli); assay: Test E flooded paddy water application; settings: Flood, 21 days, scale 0 to 100 (0 no effect, 100 complete control)
How it was run: as §2

[16] = system: purple redstem (Ammannia coccinea); assay: Test E flooded paddy water application; settings: Flood, 21 days, scale 0 to 100 (0 no effect, 100 complete control)
How it was run: as §2

[17] = system: junglerice (Echinochloa colona); assay: Test E flooded paddy water application; settings: Flood, 21 days, scale 0 to 100 (0 no effect, 100 complete control)
How it was run: as §2

[18] = Postemergence, 125 g ai/ha, 0 to 100 scale (0 no effect, 100 complete control)
[19] = Postemergence, 500 g ai/ha, 0 to 100 scale (0 no effect, 100 complete control)
[20] = Preemergence, 125 g ai/ha, 0 to 100 scale where 0 is no effect and 100 is complete control, approximately ten days
[21] = Preemergence, 500 g ai/ha, 0 to 100 scale where 0 is no effect and 100 is complete control, approximately ten days

## CCOC(=O)c1nc(-c2ccc(Cl)c(Cl)c2)nc(N)c1Br [Compound 66]
[1]; [18]
  Plant response rating, Foxtail, Giant: 0
[1]; [19]
  Plant response rating, Foxtail, Giant: 0
[1]; [20]
  Plant response rating, Foxtail, Giant: 0
[1]; [21]
  Plant response rating, Foxtail, Giant: 0
[2]; [18]
  Plant response rating, Pigweed: 50
[2]; [19]
  Plant response rating, Pigweed: 65
[2]; [20]
  Plant response rating, Pigweed: 0
[2]; [21]
  Plant response rating, Pigweed: 10
[3]; [18]
  Plant response rating, Crabgrass: 0
[3]; [19]
  Plant response rating, Crabgrass: 0
[3]; [20]
  Plant response rating, Crabgrass: 0
[3]; [21]
  Plant response rating, Crabgrass: 15
[4]; [18]
  Plant response rating, Velvetleaf: 50
[4]; [19]
  Plant response rating, Velvetleaf: 75
[4]; [20]
  Plant response rating, Velvetleaf: 0
[4]; [21]
  Plant response rating, Velvetleaf: 35
[5]; [18]
  Plant response rating, Morningglory: 20
[5]; [19]
  Plant response rating, Morningglory: 30
[5]; [20]
  Plant response rating, Morningglory: 0
[5]; [21]
  Plant response rating, Morningglory: 0
[6]; [18]
  Plant response rating, Barnyardgrass: 0
[6]; [19]
  Plant response rating, Barnyardgrass: 0
[6]; [20]
  Plant response rating, Barnyardgrass: 0
[6]; [21]
  Plant response rating, Barnyardgrass: 0
[7]; 32 g ai/ha
  Flatsedge, Rice plant response rating: 0
[7]; 64 g ai/ha
  Flatsedge, Rice plant response rating: 0
[7]; 125 g ai/ha
  Flatsedge, Rice plant response rating: 0
[7]; 250 g ai/ha
  Flatsedge, Rice plant response rating: 0
[7]; 16 g ai/ha
  Plant response rating, Flatsedge, Rice: 0
[8]; 32 g ai/ha
  Rice, Water Seeded plant response rating: 0
[8]; 64 g ai/ha
  Rice, Water Seeded plant response rating: 0
[8]; 125 g ai/ha
  Rice, Water Seeded plant response rating: 0
[8]; 250 g ai/ha
  Rice, Water Seeded plant response rating: 0
[8]; 16 g ai/ha
  Plant response rating, Rice, Water Seeded: 0
[9]; 32 g ai/ha
  Ducksalad plant response rating: 100
[9]; 64 g ai/ha
  Ducksalad plant response rating: 100
[9]; 125 g ai/ha
  Ducksalad plant response rating: 100
[9]; 250 g ai/ha
  Ducksalad plant response rating: 100
[9]; 16 g ai/ha
  Plant response rating, Ducksalad: 95
[10]; 32 g ai/ha
  Sedge, Umbrella plant response rating: 0
[10]; 64 g ai/ha
  Sedge, Umbrella plant response rating: 0
[10]; 125 g ai/ha
  Sedge, Umbrella plant response rating: 0
[10]; 250 g ai/ha
  Sedge, Umbrella plant response rating: 0
[10]; 16 g ai/ha
  Plant response rating, Sedge, Umbrella: 0
[11]; 32 g ai/ha
  Rice, Transplanted plant response rating: 0
[11]; 64 g ai/ha
  Rice, Transplanted plant response rating: 0
[11]; 125 g ai/ha
  Rice, Transplanted plant response rating: 0
[11]; 250 g ai/ha
  Rice, Transplanted plant response rating: 0
[11]; 16 g ai/ha
  Plant response rating, Rice, Transplanted: 0
[12]; 32 g ai/ha
  Watergrass, Early plant response rating: 0
[12]; 64 g ai/ha
  Watergrass, Early plant response rating: 0
[12]; 125 g ai/ha
  Watergrass, Early plant response rating: 0
[12]; 250 g ai/ha
  Watergrass, Early plant response rating: 0
[12]; 16 g ai/ha
  Plant response rating, Watergrass, Early: 0
[13]; 32 g ai/ha
  Sprangletop, Brdd. plant response rating: 0
[13]; 64 g ai/ha
  Sprangletop, Brdd. plant response rating: 0
[13]; 125 g ai/ha
  Sprangletop, Brdd. plant response rating: 0
[13]; 250 g ai/ha
  Sprangletop, Brdd. plant response rating: 0
[13]; 16 g ai/ha
  Plant response rating, Sprangletop, Brdd.: 0
[14]; 32 g ai/ha
  Watergrass, Late plant response rating: 0
[14]; 64 g ai/ha
  Watergrass, Late plant response rating: 0
[14]; 125 g ai/ha
  Watergrass, Late plant response rating: 0
[14]; 250 g ai/ha
  Watergrass, Late plant response rating: 0
[14]; 16 g ai/ha
  Plant response rating, Watergrass, Late: 0
[15]; 32 g ai/ha
  Barnyardgrass plant response rating: 0
[15]; 125 g ai/ha
  Barnyardgrass plant response rating: 0
[15]; 250 g ai/ha
  Barnyardgrass plant response rating: 35
[15]; 16 g ai/ha
  Plant response rating, Barnyardgrass: 0
[16]; 32 g ai/ha
  Redstem plant response rating: 0
[16]; 64 g ai/ha
  Redstem plant response rating: 0
[16]; 125 g ai/ha
  Redstem plant response rating: 40
[16]; 250 g ai/ha
  Redstem plant response rating: 100
[16]; 16 g ai/ha
  Plant response rating, Redstem: 0
[17]; 32 g ai/ha
  Junglerice plant response rating: 0
[17]; 64 g ai/ha
  Junglerice plant response rating: 0
[17]; 125 g ai/ha
  Junglerice plant response rating: 0
[17]; 250 g ai/ha
  Junglerice plant response rating: 0
[17]; 16 g ai/ha
  Plant response rating, Junglerice: 0
